Laboratory results: patent US4847302A, “Use of certain compounds in livestock food as growth promotants for better feed utilization and improved carcass composition” (Merck & Co., Inc., priority 1988, dated 1989)
Like-named read-outs stand apart in the source and are kept apart here.

Assays:
[1] = system: Isolated Chicken Hepatocytes; assay: Inhibition of lipogenesis (14C acetate incorporation) in isolated chicken hepatocytes; type: cell-based; settings: Gallus gallus, Hepatocyte, 2 h
Method in brief: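 Chicken hepatocytes were incubated with ^14C acetate and test compounds for 2 h at 37° C. Lipids were then extracted with Doles reagent and hexane, and ^14C in total lipids was counted by liquid scintillation, reported as CPM incorporated.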

[2] = system: Isolated Swine Adipocytes; assay: Stimulation of lipolysis (glycerol production) in isolated swine adipocytes; type: cell-based; settings: for activation at 0.01 µM / activation at 0.05 µM / activation at 0.25 µM: Sus scrofa, Adipocyte, 2 h
Method in brief: (§1)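 Collagenase-isolated adipocytes from perirenal/omental fat of 35 to 50 kg gilts (swine) or perirenal fat of 20 to 25 kg lambs (ovine) exposed to test compounds for 2 h at 37 °C in KRB with 2.5 mM glucose and 2% fatty-acid-free BSA. Glycerol released into medium measured fluorometrically; isoproterenol as positive control.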

[3] = system: Isolated Ovine Adipocytes; assay: Stimulation of lipolysis (glycerol production) in isolated ovine adipocytes; type: cell-based, sheep
Method in brief: as §1

[4] = system: Rat Adipose Tissue; assay: Stimulation of lipolysis (glycerol production) in chopped rat adipose tissue; type: cell-based; settings: Rattus norvegicus, 2 h
Method in brief: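 Chopped epididymal/perirenal fat from 150–200 g male rats, used as whole adipose preparation, incubated with test compounds at 37° C for 2 h in FSM. Isoproterenol served as positive control. Glycerol released into the medium was measured fluorometrically as the lipolysis read-out.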

[5] = In vivo testing in rats: growth, feed conversion and carcass composition; set-up: species or system rat (male Charles River CD); settings: in diet; for Gain / Feed Intake / Weight / Carcass Composition % of Change over Control, Fat / Carcass Composition % of Change over Control, Protein: dose equivalent to 20 ppm clenbuterol (clenbuterol: 10)
Method in brief: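 Male Charles River CD rats (75-90 g), ten per group, randomized by weight after four days' acclimation. Compounds premixed into ground chow at doses equivalent to 20 ppm clenbuterol on a molecular weight basis; growth, feed conversion and carcass composition assessed.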

[6] = Growth, feed conversion and carcass composition of broilers raised in floor pens for 7 weeks; type: in vivo; settings: 0.5 ppm in diet
Procedure: Compound V (bitolterol) was compared to clenbuterol for effects on growth, feed conversion and carcass composition of broilers raised in floor pens for 7 weeks. […] Bitolterol at the highest dose improved rate of gain 2.6% (P 0.01), feed conversion 3.8% (P 0.05) and carcass protein 4.9% (P 0.10).
Clenbuterol at 0.5 ppm in the diet was administered for 7 weeks to one group and only during the last 4 weeks to another group. […] Clenbuterol given for 7 weeks improved feed conversion 3.5% (P 0.05) and appeared to improve (not significant) rate of gain 0.4%, carcass weight 0.7% and carcass protein 4.0% and to decrease (not significant) carcass fat 7.1%.

[7] = Growth promoting activity / feed utilization in livestock (general statements); type: in vivo; settings: poultry, sheep or swine
[8] = Baker et al., Fed. Proc. 42; some species of food livestock; cited from earlier work
[9] = read-out: percent change compared to control, 14C acetate incorporation in fatty acids, Test 1
[10] = read-out: percent change compared to control, 14C acetate incorporation in fatty acids, Test 2
[11] = read-out: percent increase compared to control, glycerol production, Test 1
[12] = read-out: percent increase compared to control, glycerol production, Test 2

CC(C)(C)NCC(O)c1cc(Cl)c(N)c(Cl)c1 (stereo not shown) [Clenbuterol, clenbuterol]
inhibition at 0.01 µM [1, 9]: 4.2% | inhibition at 0.05 µM [1, 9]: 16.4% | inhibition at 0.25 µM [1, 9]: 24.6% | inhibition at 0.01 µM [1, 10]: 8% | inhibition at 0.05 µM [1, 10]: 18% | inhibition at 0.25 µM [1, 10]: 16% | activation at 0.01 µM [2, 11]: 27% | activation at 0.05 µM [2, 11]: -20% | activation at 0.25 µM [2, 11]: -27% | activation at 0.01 µM [2, 12]: 0% | activation at 0.05 µM [2, 12]: -20% | activation at 0.25 µM [2, 12]: 4% | lipolytic activity (in words) ([2]; isolated swine adipocytes): lack of activity | activation at 0.05 µM ([3]; Ovis aries, Adipocyte, 2 h, read-out: percent increase compared to control, glycerol production, Test 1): 240% | activation at 0.25 µM ([3]; Ovis aries, Adipocyte, 2 h, read-out: percent increase compared to control, glycerol production, Test 1, 0.25 μM): 325% | activation at 0.01 µM ([3]; Ovis aries, Adipocyte, 2 h, read-out: percent increase compared to control, glycerol production, Test 2, 0.01 μM): 186% | activation at 0.05 µM ([3]; Ovis aries, Adipocyte, 2 h, read-out: percent increase compared to control, glycerol production, Test 2): 857% | percent increase compared to control, glycerol production ([3]; Test 1, 0.01 μM): inactive | activation at 0.01 µM [4, 11]: 12% | activation at 0.05 µM [4, 11]: 26% | activation at 0.25 µM [4, 11]: 21% | activation at 0.01 µM [4, 12]: 10% | activation at 0.05 µM [4, 12]: 10% | activation at 0.25 µM [4, 12]: 16% | Gain ([5]; Test 1, control 7.3): 7.8 g/day | Feed Intake ([5]; Test 1, control 18.6): 19.2 g/day | Weight ([5]; Test 1, control 191.8): 198.6 g | Carcass Composition % of Change over Control, Fat ([5]; Test 1): -11.3% | Carcass Composition % of Change over Control, Protein ([5]; Test 1): 11.2% | Gain ([5]; Test 2, control 7.5): 8.2 g/day | Feed Intake ([5]; Test 2, control 19.3): 19.9 g/day | Weight ([5]; Test 2, control 202.3): 216.9 g | Carcass Composition % of Change over Control, Fat ([5]; Test 2): -11.9% | Carcass Composition % of Change over Control, Protein ([5]; Test 2): 4.3% | minimum dose needed to give maximum improvements in gain and feed conversion ([5]; previously determined): 10 ppm | feed conversion and carcass protein, 7 weeks versus 4 weeks of administration [6]: slightly more effective | improvement of feed conversion ([6]; 7 weeks, P 0.05): 3.5% | decrease of carcass fat ([6]; 7 weeks, not significant): 7.1% | improvement of carcass protein ([6]; 7 weeks, not significant): 4.0% | improvement of carcass weight ([6]; 7 weeks, not significant): 0.7% | improvement of rate of gain ([6]; 7 weeks, not significant): 0.4% | activity compared with other compounds in poultry, sheep or swine [7]: not as active as other compounds in poultry, sheep or swine | enhancement of food utilization and change of carcass composition [8]: functions in this way
